# Ends that are not written are not given here. FAM = 5(6)-carboxyfluorescein; Ahx = NCCCCCC(=O)O
# Tests used:
# Conditions in all cases: 30 nmoles i.v., 2 h
# MEMs in MCF-7 tumors = assay: Free peptide homing and immunofluorescence in the orthotopic MCF-7 breast tumor model; assay type: in vivo, mouse
# Experimental: A, Thirty nmoles of FAM-UNO were injected intravenously in mice bearing MCF-7 tumors, 21 days after orthotopic inoculation of 5×10^6 cells. […] All images were taken with the same imaging conditions. Scale bar: 100 μm and 50 μm (blow up). […] The tumor tissue from panel A was analyzed by immunofluorescence using rabbit anti-FAM (green), rat anti-HLA ABC (red) and counterstained with DAPI (blue). Scale bar: 50 μm. C, MCF-7 tumors are leaky. Tumor sections were immunostained for endogenous mouse IgG and counterstained with DAPI using the same staining and imaging conditions as in FIG. 17. Scale bar: 100 μm. Representative images from n=3 mice.
# Mice were used for homing studies two weeks later.
# MEMs in MKN45-P tumors = system: MEMs in MKN45-P tumors
# Experimental: Thirty nmoles of FAM-UNO or FAM-control peptide were injected intravenously into mice and allowed to circulate for 2 h. Mice were then sacrificed and tumor and tissues were analyzed by immunofluorescence using rabbit anti-FAM (green) and rat anti-CD206 (red) antibodies, and counterstained with DAPI. […] The metastases were induced by i.v. inoculation of B16F10 melanoma cells. […] Blue: DAPI. Representative fields from multiple sections (n≥3) prepared from at least 3 tumors are shown. Scale bar: 50 μm. Images shown are representative fields from multiple sections (≥3) prepared from at least 3 tumors (n≥3 mice). The graphs show mean+SEM of FAM signal quantified as described in Materials and Methods.
# Tumor models were induced according to protocols approved by the Estonian Ministry of Agriculture, Committee of Animal Experimentation (permit #48). For the 4T1 breast model, 8-week old female Balb/c mice were injected in the mammary fat pad with 10^6 cells dispersed in 50 μL of PBS. For homing studies, mice were used 10 days later, when the tumor had reached ˜150 mm^3. For MCF-7 breast model, 8-week old female nude mice were implanted with an estrogen pellet, and 1 week later inoculated with 5×10^6 MCF-7 cells in 100 μL of cold Matrigel (BD Biosciences, CA, USA). Mice were used for homing studies three weeks later (tumor volume˜150 mm^3). For the metastatic gastric carcinoma, 10^6 MKN45-P cells in PBS were injected intraperitoneally in 8-week old female nude mice. Mice were used for homing studies two weeks later. For the metastatic melanoma model, 2×10^5 B16F10 cells were injected intravenously in 100 μL of PBS in C57 BL6 mice. The mice were used for homing studies 10 days after. […]
# For free peptide homing studies, mice were injected intravenously with 30 nmoles of FAM-peptides in 100 μL of PBS. […] FAM was detected using Rabbit anti-FITC (Invitrogen, CA, USA. Catalog # A-889) at a dilution of 1/100 and using Alexa Fluor-546 anti-rabbit antibody (Invitrogen, Ca, USA. Catalog # A-11035) at a dilution of 1/200.
# [1] = system: intestinal tissue (CD209) and lymph nodes of healthy mice; assay: Free peptide homing in healthy Balb/C mice; assay type: in vivo, mouse
# Experimental: A, Thirty nmoles of FAM-UNO were injected intravenously in healthy Balb/C mice. Peptide was allowed to circulate for 2 hours. Mice were then sacrificed and intestinal tissue was analyzed by immunofluorescence using rabbit anti-FAM (green) together with rat anti-CD209 (red) and counterstained with DAPI. B, Thirty nmoles of FAM-UNO were injected intravenously in mice bearing 4T1 tumors, 10 days after orthotopic inoculation of 10^6 Cells. Peptide was let to circulate for two hours, mice were then sacked and tumor and tissues analyzed by immunofluorescence using rabbit Anti-FAM (green) together with rat anti-CD209 (red) and counterstained with DAPI (Blue). Images in A and B were taken using the same imaging conditions. Scale bar: 50 μm (images in B are at the same scale as in A). Representative images from n=3 mice.
# Thirty nmoles of FAM-UNO were injected intravenously in healthy Balb/C female mice. Peptide was allowed to circulate for 2 hours. Mice were then sacrificed, and inguinal lymph node and kidney analyzed by immunofluorescence using rabbit anti-FAM together with rat anti-CD206 (red, 2901) and counterstained with DAPI (blue). FAM-UNO is absent from the healthy inguinal lymph node (left panel), while some CD206 is observed (2901). In the kidney (right panel), the FAM fluorescence signal is detected throughout the tissue. Scale bars: 100 μm. Representative images from n=3 mice.
substance,measurement,setting,value
FAM-UNO: FAM-labeled UNO peptide CSPGAKVRC (SEQ ID NO: 1); 5(6)-carboxyfluorescein with 6-aminohexanoic acid spacer at the N-terminus ({FAM-Ahx}-CSPGAKVRC; cysteine pairing not given here),accumulation in MEMs,MEMs in MCF-7 tumors,selectively accumulated in MEMs
same,targeting of tumor cells of human origin (HLA ABC+),MEMs in MCF-7 tumors,did not target the tumor cells of human origin
same,accumulation in MEMs / CD206+ cells,MEMs in MKN45-P tumors,accumulated in MEMs
same,homing to lymph nodes of healthy mice,[1],did not home to the lymph nodes of healthy Balb/C mice
same,recruitment to intestinal tissue (expresses CD209) of healthy mice,[1],not recruited to intestinal tissue of healthy mice
